“And” between values parts separate entries of the source, which are not always exact repeats. Identical values can stand only once.
Assays:
[1] = test system: normal human epidermal keratinocytes (NHEK); test: Cytotoxicity on NHEK monolayer cultures (MTT reduction assay and morphological observation); format: cell-based; settings: for Viability (%): single values, listed as Hes-5-Rha
Procedure: To determine the cytotoxicity of flavonoid-5-O-α-L-rhamnosides tests were performed versus their aglycon derivatives in cell monolayer cultures. For this purpose concentrations ranging from 1 μM to 250 μM were chosen. The viability of normal human epidermal keratinocytes (NHEK) was twice evaluated by a MTT reduction assay and morphological observation with a microscope. NHEK were grown at 37° C. and 5% CO2 aeration in Keratinocyte-SFM medium supplemented with epidermal growth factor (EGF) at 0.25 ng/mL, pituitary extract (PE) at 25 μg/mL and gentamycin (25 μg/mL) for 24 h and were used at the 3rd passage. For cytotoxicity testing, pre-incubated NHEK were given fresh culture medium containing a specific concentration of test compound and incubated for 24 h. After a medium change at same test concentration cells were incubated a further 24 h until viability was determined. Test results are given in Table B2 and illustrated in FIG. 10.

IL-8 = IL-8 release in stimulated NHEK (ELISA); format: cell-based, human; settings: for inhibition at 100 µM: Homo sapiens, NHEK; for Cytokine [pg/mL] IL-8 Mean / IL-8 % stim. control / Cytokine [pg/mL] IL-8: 100 μM; for Cytokine [pg/mL] IL-8: single values
Procedure: NHEK were pre-incubated for 24 h with the test compounds. The medium was replaced with the NHEK culture medium containing the inflammatory inducers (PMA or Poly I:C) and incubated for another 24 hours. Positive and negative controls ran in parallel. At the endpoint the culture supernatants were quantified of secreted IL-8, PGE2 and TNF-α by means of ELISA.

[2] = test system: lipid peroxides (C11-fluor) in NHEK cells; test: Protection against UV-induced lipid peroxide in NHEK (C11-fluor probe, flow cytometry); format: cell-based, human; settings: 100 μM, 240 mJ/cm^2 UVB (3538 mJ/cm^2 UVA)
Procedure: Pre-incubated NHEK were incubated with the test compound for 24 h. Then the specific fluorescence probe for the measurement of hydrogen peroxide (DHR) or lipid peroxides (C11-fluor) was added and incubated for 45 min. Irradiation occurred with in H2O2 determination UVB at 180 mJ/cm^2 (+UVA at 2839 mJ/cm^2) or UVB at 240 mJ/cm^2 (+UVA at 3538 mJ/cm^2) in lipid peroxide, respectively, using a SOL500 Sun Simulator lamp. After irradiation the cells were post-incubated for 30 min before flow-cytometry analysis.

VEGF = VEGF release in NHDF (ELISA); format: cell-based, human; settings: 100 μM, 72 hours
Procedure: (§1) Tests were performed with normal human dermal fibroblast cultures at the 8th passage. Cells were grown in DMEM supplemented with glutamine at 2 mM, penicillin at 50 U/mL and streptomycin (50 μg/mL) and 10% of fetal calf serum (FCS) at 37° C. in a 5% CO2 atmosphere.
(§2) Fibroblasts were cultured for 24 hours before the cells were incubated with the test compounds for further 72 hours. After the incubation the culture supernatants were collected in order to measure the released quantities of procollagen I, VEGF, and fibronectin by means of ELISA. Reference test compounds were vitamin C (procollagen I), PMA (VEGF), and TGF-β (fibronectin).

fibronectin = test: Fibronectin synthesis in NHDF (ELISA); format: cell-based, human; settings: 100 μM, 72 hours
Procedure: as §1, §2

[3] = test system: matrix metallopeptidase 1 (MMP-1); test: MMP-1 release in UVA-irradiated NHDF (ELISA); format: cell-based, human; settings: 100 μM, 15 J/cm^2 UVA
Procedure: as §1
Human fibroblasts were cultured for 24 hours before the cells were pre-incubated with the test or reference compounds (dexamethasone) for another 24 hours. The medium was replaced by the irradiation medium (EBSS, CaCl2 0.264 g/L, MgClSO4 0.2 g/L) containing the test compounds) and cells were irradiated with UVA (15 J/cm^2). The irradiation medium was replaced by culture medium including again the test compounds incubated for 48 hours. After incubation the quantity of matrix metallopeptidase 1 (MMP-1) in the culture supernatant was measured using an ELISA kit.

STAT3 = STAT3 activity in HeLa-STAT3-luc cells stimulated with IFN-γ (luciferase); format: cell-based; settings: +IFNγ 25 U/ml; for RLU 1 / RLU 2 / RLU 3: HeLa-STAT3-luc cells; for RLU 1: replicate well 1; for RLU 2: replicate well 2; for RLU 3: replicate well 3; for RLU specific: mean minus control; for Mean: mean of triplicate wells; for % Activation: IFNγ alone = 100% activation
Procedure: HeLa-STAT3-luc cells were stably transfected with the plasmid 4xM67 pTATA TK-Luc. Cells (20×10^3 cells/ml) were seeded 96-well plate the day before the assay. Then the cells were treated with the test substances for 15 min and then stimulated with IFN-γ 25 IU/ml. After 6 h, the cells were washed twice with PBS and lysed in 50 μl lysis buffer containing 25 mM Tris-phosphate (pH 7.8), 8 mM MgCl2, 1 mM DTT, 1% Triton X-100, and 7% glycerol during 15 min at RT in a horizontal shaker. Luciferase activity was measured using GloMax 96 microplate luminometer (Promega) following the instructions of the luciferase assay kit (Promega, Madison, Wis., USA). […] The experiments for each concentration of the test items were done in triplicate wells.

## COc1ccc(C2CC(=O)c3c(cc(O)cc3O[C@@H]3O[C@@H](C)[C@H](O)[C@@H](O)[C@H]3O)O2)cc1O (stereo partly drawn) [HESR1, Hesperetin-5-O-α-L-rhamnoside]
[1]; 1 μM
  Viability (%) Mean: 97%
  Viability (%): 86% and 108%
[1]; 2.5 μM
  Viability (%) Mean: 100%
  Viability (%): 87% and 113%
[1]; 5 μM
  Viability (%) Mean: 88%
  Viability (%): 81% and 95%
[1]; 10 μM
  Viability (%) Mean: 95%
  Viability (%): 86% and 103%
[1]; 25 μM
  Viability (%) Mean: 101%
  Viability (%): 89% and 112%
[1]; 50 μM
  Viability (%) Mean: 87%
  Viability (%): 81% and 93%
[1]; 100 μM
  Viability (%) Mean: 97%
  Viability (%): 86% and 108%
[1]; 250 μM
  Viability (%) Mean: 96%
  Viability (%): 91% and 102%
IL-8; PMA
  inhibition at 100 µM: 34%
  Cytokine [pg/mL] IL-8 Mean: 2843 pg/mL
  IL-8 % stim. control: 98%
  Cytokine [pg/mL] IL-8: 3242 pg/mL and 2445 pg/mL
IL-8; poly(I:C)
  inhibition at 100 µM: 24%
  Cytokine [pg/mL] IL-8 Mean: 2793 pg/mL
  IL-8 % stim. control: 76%
  Cytokine [pg/mL] IL-8: 2617 pg/mL and 2970 pg/mL
[2]
  C11-fluor(AU) Mean (1/GMFI): 6.4E−04 AU
  lipid peroxide % Irradiated control: 99%
  lipid peroxide Protection %: 1%
[2]; single values
  C11-fluor(AU) 1/GMFI: 6.0E−04 AU and 6.9E−04 AU
  C11-fluor(AU) GMFI: 1671 AU and 1455 AU
VEGF
  Mean VEGF: 73 pg/mL
  VEGF % Control: 101%
  VEGF % Stimulation: 1%
VEGF; single values
  VEGF: 70 pg/mL and 76 pg/mL
fibronectin
  Fibronectin % Control: 96%
  Fibronectin % Stimulation: −4%
  Fibronectin Mean: 5853 ng/mL
fibronectin; single values
  Fibronectin: 5843 ng/mL and 5864 ng/mL
[3]
  MMP-1 % Irradiated control: 116%
  MMP-1 % Protection: −25%
  Mean MMP-1: 82.2 ng/mL
[3]; single values
  MMP-1: 87.0 ng/mL and 77.4 ng/mL
STAT3; 25 μM test substance
  RLU 1: 13396 RLU
  RLU 2: 12243 RLU
  RLU 3: 12859 RLU
  RLU specific: 10825 RLU
  Mean: 12833 RLU
  % Activation: 86.48%
STAT3; 50 μM test substance
  RLU 1: 14303 RLU
  RLU 2: 13124 RLU
  RLU 3: 11985 RLU
  RLU specific: 11130 RLU
  Mean: 13137 RLU
  % Activation: 88.92%
